How the values were obtained:
[1] = biological target: T1, human recombinant dopamine transport binding sites (DAT) (Homo sapiens, UniProt Q01959); assay: Radioligand binding assay, dopamine transporter (NovaScreen)
T1 construct: NovaScreen, Hanover, Md; (contract laboratory that ran the assay)

[2] = biological target: T2, human recombinant norepinephrine transport binding sites (NET) (Homo sapiens, UniProt P23975); assay: Radioligand binding assay, norepinephrine transporter (NovaScreen)
T2 construct: NovaScreen, Hanover, Md; (contract laboratory that ran the assay)
T2 sequence (P23975 whole entry): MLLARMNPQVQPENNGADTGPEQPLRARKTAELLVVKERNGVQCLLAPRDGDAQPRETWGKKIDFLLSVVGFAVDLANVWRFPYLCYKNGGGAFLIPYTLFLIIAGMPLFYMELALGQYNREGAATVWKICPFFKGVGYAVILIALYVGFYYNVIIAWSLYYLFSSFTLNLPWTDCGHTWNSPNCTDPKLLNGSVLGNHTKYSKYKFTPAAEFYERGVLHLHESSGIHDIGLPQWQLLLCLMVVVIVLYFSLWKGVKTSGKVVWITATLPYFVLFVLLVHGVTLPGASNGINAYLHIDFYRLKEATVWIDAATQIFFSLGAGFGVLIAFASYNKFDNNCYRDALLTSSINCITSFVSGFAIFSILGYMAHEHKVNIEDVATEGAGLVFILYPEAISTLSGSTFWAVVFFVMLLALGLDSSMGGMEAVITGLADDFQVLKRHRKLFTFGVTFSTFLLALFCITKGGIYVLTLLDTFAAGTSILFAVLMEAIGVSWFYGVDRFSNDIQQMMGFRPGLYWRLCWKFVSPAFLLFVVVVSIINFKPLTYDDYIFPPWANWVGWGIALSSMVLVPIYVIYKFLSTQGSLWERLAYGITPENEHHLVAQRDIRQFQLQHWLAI

[3] = Kitchen tests: water, acid (vinegar), base (baking powder, baking soda), boiling; assay type: physicochemical; conditions: for free amphetamine released: heated to boiling for 20-60 minutes
Method: “Kitchen tests” were performed in anticipation of attempts by illicit chemists to release free amphetamine from the amphetamine conjugate.

children with ADHD = assay: Pediatric crossover efficacy study, SKAMP-Deportment score
[4] = Intranasal bioavailability of peptide amphetamine conjugates (HCl salts, ELISA); conditions: rat, parenteral routes
[5] = Clinical pharmacokinetics, 25 and 75 mg, compared to Adderall XR and Dexedrine Spansule; conditions: human, in vivo, po; for AUC(0-inf): L-lysine-d-amphetamine intact conjugate AUCinf; for AUC(0-t): L-lysine-d-amphetamine intact conjugate AUClast; for half-life: L-lysine-d-amphetamine intact conjugate T1/2, human; for Tmax: L-lysine-d-amphetamine intact conjugate Tmax
[6] = 25 mg, oral 25 mg L-lysine-d-amphetamine, mean
[7] = 25 mg, oral 25 mg L-lysine-d-amphetamine, individual subjects
[8] = 25 mg, L-lysine-d-amphetamine intact conjugate concentration, oral 25 mg L-lysine-d-amphetamine, individual subjects
[9] = 25 mg, L-lysine-d-amphetamine intact conjugate concentration, oral 25 mg L-lysine-d-amphetamine, mean
[10] = 75 mg, oral 75 mg L-lysine-d-amphetamine, mean

T1 sequence (Q01959 whole entry): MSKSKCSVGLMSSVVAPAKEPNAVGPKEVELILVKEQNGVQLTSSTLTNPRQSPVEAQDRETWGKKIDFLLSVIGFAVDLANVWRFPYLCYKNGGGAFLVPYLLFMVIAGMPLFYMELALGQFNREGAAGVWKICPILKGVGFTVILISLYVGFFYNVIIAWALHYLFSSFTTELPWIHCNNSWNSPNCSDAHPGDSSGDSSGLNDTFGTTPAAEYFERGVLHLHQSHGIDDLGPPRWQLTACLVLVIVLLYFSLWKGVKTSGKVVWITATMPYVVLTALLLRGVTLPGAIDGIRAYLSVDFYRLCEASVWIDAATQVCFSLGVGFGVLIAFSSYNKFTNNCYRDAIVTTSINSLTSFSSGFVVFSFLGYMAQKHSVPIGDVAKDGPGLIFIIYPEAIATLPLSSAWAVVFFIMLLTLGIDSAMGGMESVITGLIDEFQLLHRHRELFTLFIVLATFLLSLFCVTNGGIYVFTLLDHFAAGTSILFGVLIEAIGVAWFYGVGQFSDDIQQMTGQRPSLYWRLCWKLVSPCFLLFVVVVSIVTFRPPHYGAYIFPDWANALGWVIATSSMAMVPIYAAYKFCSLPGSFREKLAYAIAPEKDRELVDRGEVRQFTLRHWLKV

SMILES: CC(Cc1ccccc1)NC(=O)C(N)CCCCN [L-lysine-d-amphetamine, 2,6-diaminohexanoic acid-(1-methyl-2-phenylethyl)-amide]
- inhibition at 10 µM ([1]; 10^−5 mol/L): -0.71%
- inhibition at 0.1 µM ([1]; 10^−7 mol/L): 11.5%
- inhibition at 0.001 µM ([1]; 10^−9 mol/L): -10.5%
- Specific binding to dopamine transport binding sites ([1]; 10^−9 to 10^−5 M): did not bind
- Activity ([1]; DA Transporter, radioligand [3H]-WIN35428, 10^−9 to 10^−5 M): No (No activity is defined as producing between −20% and 20% inhibition of radioligand binding (Novascreen).)
- inhibition at 10 µM ([2]; 10^−5 mol/L): 13.9%
- inhibition at 0.1 µM ([2]; 10^−7 mol/L): -11.8%
- inhibition at 0.001 µM ([2]; 10^−9 mol/L): 8.15%
- Specific binding to norepinephrine transport binding sites ([2]; 10^−9 to 10^−5 M): did not bind
- Activity ([2]; NE Transporter, radioligand [3H]-Nisoxetine, 10^−9 to 10^−5 M): No (No activity is defined as producing between −20% and 20% inhibition of radioligand binding (Novascreen).)
- free amphetamine released ([3]; Baking Powder): 0%
- free amphetamine released ([3]; Baking Soda): 0%
- free amphetamine released ([3]; Tap Water): 0%
- free amphetamine released ([3]; Vinegar): 0%
- Release of free amphetamine in kitchen tests ([3]; water, vinegar, baking powder, baking soda, boiling 20-60 minutes): no detectable free amphetamine
- Duration of action (children with ADHD; children 6-12, SKAMP): 12 h
- Onset of significant effects post morning dose (children with ADHD; children 6-12, SKAMP): ≤ 2 h
- SKAMP-Deportment score compared to placebo (children with ADHD; children 6-12, once daily for 1 week each treatment): highly effective compared to placebo
- Bioavailability by parenteral routes of administration [4]: decreased parenteral bioavailability
- AUC(0-inf) [5, 6]: 13.5 ng·h/mL
- AUC(0-t) [5, 6]: 11.3 ng·h/mL
- Cmax ([5]; 25 mg, L-lysine-d-amphetamine intact conjugate Cmax, oral 25 mg L-lysine-d-amphetamine, mean): 11.6 ng/mL
- half-life [5, 7]: 28.2 min
- half-life [5, 6]: 25.1 min
- Tmax [5, 7]: 1 h
- Tmax [5, 6]: 1.05 h
- concentration at 0 h [5, 8]: 0 ng/mL
- concentration at 0 h [5, 9]: 0 ng/mL
- concentration at 0.5 h ([5]; 25 mg, L-lysine-d-amphetamine intact conjugate concentration, oral 25 mg L-lysine-d-amphetamine, 0.5 h, mean): 5.1 ng/mL
- concentration at 1 h ([5]; 25 mg, L-lysine-d-amphetamine intact conjugate concentration, oral 25 mg L-lysine-d-amphetamine, 1 h, mean): 11.2 ng/mL
- concentration at 2 h ([5]; 25 mg, L-lysine-d-amphetamine intact conjugate concentration, oral 25 mg L-lysine-d-amphetamine, 2 h, mean): 2.2 ng/mL
- concentration at 3 h [5, 8]: 0 ng/mL
- concentration at 3 h [5, 9]: 0 ng/mL
- concentration at 4 h [5, 8]: 0 ng/mL
- concentration at 4 h [5, 9]: 0 ng/mL
- concentration at 5 h [5, 8]: 0 ng/mL
- concentration at 5 h [5, 9]: 0 ng/mL
- concentration at 6 h [5, 8]: 0 ng/mL
- concentration at 6 h [5, 9]: 0 ng/mL
- concentration at 7 h [5, 8]: 0 ng/mL
- concentration at 7 h [5, 9]: 0 ng/mL
- concentration at 8 h [5, 8]: 0 ng/mL
- concentration at 8 h [5, 9]: 0 ng/mL
- concentration at 10 h [5, 8]: 0 ng/mL
- concentration at 10 h [5, 9]: 0 ng/mL
- concentration at 12 h [5, 8]: 0 ng/mL
- concentration at 12 h [5, 9]: 0 ng/mL
- concentration at 16 h [5, 8]: 0 ng/mL
- concentration at 16 h [5, 9]: 0 ng/mL
- concentration at 24 h [5, 8]: 0 ng/mL
- concentration at 24 h [5, 9]: 0 ng/mL
- concentration at 48 h [5, 8]: 0 ng/mL
- concentration at 48 h [5, 9]: 0 ng/mL
- concentration at 72 h [5, 8]: 0 ng/mL
- concentration at 72 h [5, 9]: 0 ng/mL
- AUC(0-inf) [5, 10]: 59.5 ng·h/mL
- AUC(0-t) [5, 10]: 58.1 ng·h/mL
